Experimental data published in patent publication US4740233A, “Substituted 1,2,4-triazolo[1,5-a]-pyrimidine-2-sulfonamides and compositions and methods of controlling undesired vegetation and suppressing the nitrification of ammonium nitrogen in soil” (The Dow Chemical Company, priority 1986, dated 1988).

How the values were obtained:
Test in all cases: Preemergent control of plant species
[1] = test system: cotton; type: in vivo, Gossypium spp.; conditions: Gossypium hirsutum, pre-emergence, 336 h; 0.25 lb/acre; read-out: percent preemergent control
How it was run: (§1)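 Seeds sown in agricultural soil in greenhouse beds, then aqueous-emulsion compositions applied uniformly to the bed surface at listed rates. Beds kept two weeks under greenhouse growth conditions with watering. Control expressed as growth reduction versus water-treated beds of the same species.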

[2] = test system: rape; type: in vivo, Brassica napus; conditions: Brassica napus, pre-emergence, 336 h; 0.25 lb/acre; read-out: percent preemergent control
How it was run: as §1

[3] = test system: soybean; type: in vivo, Glycine max.; conditions: Glycine max, pre-emergence, 336 h; 0.25 lb/acre; read-out: percent preemergent control
How it was run: as §1

[4] = test system: sugar beet; type: in vivo, Beta saccharifera; conditions: Beta vulgaris, pre-emergence, 336 h; 0.25 lb/acre; read-out: percent preemergent control
How it was run: as §1

[5] = test system: jimsonweed; type: in vivo, Datura stramonium; conditions: Datura stramonium, pre-emergence, 336 h; 0.25 lb/acre; read-out: percent preemergent control
How it was run: as §1

[6] = test system: annual morning glory; type: in vivo, Ipomoea spp.; conditions: Ipomoea, pre-emergence, 336 h; 0.25 lb/acre; read-out: percent preemergent control
How it was run: as §1

[7] = test system: velvetleaf; type: in vivo, Abutilon theophrasti; conditions: Abutilon theophrasti, pre-emergence, 336 h; 0.25 lb/acre; read-out: percent preemergent control
How it was run: as §1

[8] = test system: corn; type: in vivo, Zea mays; conditions: Zea mays, pre-emergence, 336 h; 0.25 lb/acre; read-out: percent preemergent control
How it was run: as §1

[9] = test system: rice; type: in vivo, Oryza sativa; conditions: Oryza sativa, pre-emergence, 336 h; 0.25 lb/acre; read-out: percent preemergent control
How it was run: as §1

[10] = test system: sorghum; type: in vivo, Sorghum vulgare; conditions: Sorghum, pre-emergence, 336 h; 0.25 lb/acre; read-out: percent preemergent control
How it was run: as §1

[11] = test system: wheat; type: in vivo, Triticum aestivum; conditions: Triticum aestivum, pre-emergence, 336 h; 0.25 lb/acre; read-out: percent preemergent control
How it was run: as §1

[12] = test system: barnyardgrass; type: in vivo, Echinochloa crusgalli; conditions: Echinochloa crus-galli, pre-emergence, 336 h; 0.25 lb/acre; read-out: percent preemergent control
How it was run: as §1

[13] = test system: johnson grass; type: in vivo, Sorghum halepense; conditions: Sorghum halepense, pre-emergence, 336 h; 0.25 lb/acre; read-out: percent preemergent control
How it was run: as §1

[14] = test system: wild oats; type: in vivo; conditions: Avena fatua, pre-emergence, 336 h; 0.25 lb/acre; read-out: percent preemergent control
Experimental: The seeds of various species of plants were planted in beds of good agricultural soil in a greenhouse. A number of compositions of the present invention, generally in the nature of an aqueous emulsion, were applied at rates listed in the table so as to deposit a predetermined amount of active ingredients uniformly throughout the surface of the bed. Another seed bed was treated only with water to serve as a control. After treatment the seed beds were maintained for two weeks under greenhouse conditions conducive for good plant growth and watered as necessary. Control refers to the reduction in growth compared to the observed results of the same untreated species.

[15] = test system: yellow foxtail; type: in vivo, Setaria lutescens; conditions: Setaria, pre-emergence, 336 h; 0.25 lb/acre; read-out: percent preemergent control
How it was run: as §1

[16] = test system: yellow nutsedge; type: in vivo, Cyperus esculentus; conditions: Cyperus, pre-emergence, 336 h; 0.25 lb/acre; read-out: percent preemergent control
How it was run: as §1

Structure (SMILES) | plant injury at 280.212 g/ha [1] [%] | plant injury at 280.212 g/ha [2] [%] | plant injury at 280.212 g/ha [3] [%] | plant injury at 280.212 g/ha [4] [%] | pest or weed control at 280.212 g/ha [5] [%] | pest or weed control at 280.212 g/ha [6] [%] | pest or weed control at 280.212 g/ha [7] [%] | plant injury at 280.212 g/ha [8] [%] | plant injury at 280.212 g/ha [9] [%] | plant injury at 280.212 g/ha [10] [%] | plant injury at 280.212 g/ha [11] [%] | pest or weed control at 280.212 g/ha [12] [%] | pest or weed control at 280.212 g/ha [13] [%] | pest or weed control at 280.212 g/ha [14] [%] | pest or weed control at 280.212 g/ha [15] [%] | pest or weed control at 280.212 g/ha [16] [%]
COc1nc2nc(S(=O)(=O)Nc3c(F)cccc3F)nn2cc1C [Compound 214] | 100 | 100 | 100 | 100 | 100 | 100 | 100 | 100 | 100 | 100 | 100 | 100 | 100 | 100 | 100 | 100
COC(=O)c1cccc(F)c1NS(=O)(=O)c1nc2nc(OC)c(C)cn2n1 [Compound 215] | 100 | 100 | 100 | 100 | 100 | 100 | 100 | 100 | 100 | 100 | 100 | 100 | 100 | 100 | 100 | 100
COC(=O)c1cccc(C)c1NS(=O)(=O)c1nc2nc(OC)c(C)cn2n1 [Compound 216] | 100 | 20 | 70 | 100 | 100 | 90 | 100 | 100 | 90 | 100 | 100 | 75 | 100 | 100 | 100 | 70
CCOC(=O)N(c1c(Cl)cccc1Cl)S(=O)(=O)c1nc2nc(C)ccn2n1 [Compound 272] | 80 | 100 | 0 | 100 | 90 | 40 | 100 | 0 | 30 | 40 | 0 | 60 | 40 | 0 | 90 | 100
Cc1ccn2nc(S(=O)(=O)N(C(=O)c3ccccc3)c3c(Cl)cccc3Cl)nc2n1 [Compound 274, 5-methyl-N-benzoly-N-(2,6-dichlorophenyl)-1,2,4-triazolo[1,5-a]pyrimidine-2-sulfonamide] | 95 | 100 | 0 | 100 | 90 | 80 | 100 | 60 | 80 | 90 | 0 | 80 | 70 | 0 | 95 | 100
Cc1ccn2nc(S(=O)(=O)N(C(=O)CCCl)c3c(F)cccc3F)nc2n1 [Compound 282] | 100 | 100 | 50 | 100 | 100 | 80 | 100 | 95 | 100 | 100 | 70 | 70 | 100 | 100 | 100 | 100
Cc1ccn2nc(S(=O)(=O)N(C(=O)CC(C)C)c3c(F)cccc3F)nc2n1 [Compound 284] | 100 | 100 | 20 | 100 | 100 | 80 | 100 | 85 | 100 | 100 | 100 | 100 | 100 | 90 | 100 | 100
CC=CC(=O)N(c1c(F)cccc1F)S(=O)(=O)c1nc2nc(C)ccn2n1 [Compound 288] | 100 | 100 | 40 | 100 | 100 | 100 | 100 | 80 | 100 | 100 | 60 | 100 | 100 | 90 | 100 | 100
Cc1ccn2nc(S(=O)(=O)N(C(=O)c3ccccc3)c3c(F)cccc3F)nc2n1 [Compound 290] | 100 | 100 | 70 | 100 | 100 | 100 | 100 | 90 | 100 | 100 | 95 | 100 | 100 | 70 | 100 | 80
Cc1ccn2nc(S(=O)(=O)N(C(=O)C3CCCCC3)c3c(F)cccc3F)nc2n1 [Compound 291] | 100 | 100 | 20 | 100 | 100 | 90 | 100 | 55 | 100 | 100 | 100 | 100 | 100 | 70 | 100 | 100
Cc1ccn2nc(S(=O)(=O)N(C(=O)C=Cc3ccccc3)c3c(F)cccc3F)nc2n1 [Compound 293] | 100 | 100 | 10 | 100 | 100 | 70 | 100 | 60 | 90 | 100 | 60 | 100 | 95 | 95 | 100 | 100
